Laboratory results: patent US6599893B2, “Cephalosporin antibiotics and prodrugs thereof” (Essential Therapeutics, Inc., priority 2000, dated 2003)
Converted amounts (≈) assume the structure as drawn. Where two headings read alike, the source gives them in different places.

Tests used:
[1] = test system: Staphylococcus aureus Smith (MSSA); assay: Broth microdilution MIC, S. aureus Smith; type: cell-based; conditions: for MIC: read-out: MIC S. a. Smith
Protocol: (§1) Compounds were evaluated for antimicrobial activity against a panel of bacterial strains using a broth microdilution assay performed as recommended by the NCCLS (NCCLS (National Committee for Clinical Laboratory Standards). 1993. Methods for dilution antimicrobial susceptibility tests for bacteria that grow aerobically. NCCLS Document M7-A3, 1993. In: NCCLS Antimicrobial Susceptibility Testing, 3rd Ed.)
(§2) The minimum inhibitory concentration (MIC) is defined as the lowest concentration of a compound that prevents the growth of the bacteria.

[2] = test system: Staphylococcus aureus ATCC 29213 (MSSA); assay: Broth microdilution MIC, S. aureus ATCC 29213; type: cell-based; conditions: for MIC: read-out: MIC S. a. 29213
Protocol: as §1, §2

[3] = test system: Staphylococcus aureus COL (MRSA, non-β-lactamase producing); assay: Broth microdilution MIC, S. aureus COL; type: cell-based; conditions: for MIC: read-out: MIC S. a. COL
Protocol: as §1, §2

[4] = test system: Staphylococcus aureus 76 (MRSA, β-lactamase producing); assay: Broth microdilution MIC, S. aureus 76; type: cell-based; conditions: for MIC: read-out: MIC S. a. 76
Protocol: as §1, §2

[5] = test system: Enterococcus faecalis ATCC 29212; assay: Broth microdilution MIC, E. faecalis ATCC 29212; type: cell-based
Protocol: as §1, §2

[6] = test system: Enterococcus faecium ATCC 35667; assay: Broth microdilution MIC, E. faecium ATCC 35667; type: cell-based
Protocol: as §1, §2

S. aureus strain Smith = assay: Experimental infection of mice, ED50; type: in vivo, Swiss-Webster mice; conditions: for ED50: Staphylococcus aureus, read-out: ED50, mg/kg (95% C.I.)
Protocol: Staphylococcus aureus strain Smith (ATCC 13709, penicillin-susceptible) or strain 76 (methicillin-resistant) was cultured overnight at 37° C. in brain-heart infusion broth (BHIB). The following morning, a portion of the culture was transferred to fresh BHIB and incubated for an additional 4-5 hours at 37° C. The cells were harvested by centrifugation, washed twice with PBS, and adjusted to the desired inoculum amount. The cell suspension was mixed with an equal volume of sterile 14% hog-gastric mucin (Comber K. R.; Osborne C. D.; Sutherland R.: Comparative effects of amoxicillin and ampicillin in the treatment of experimental mouse infections. Antimicrobial Agents and Chemotherapy 7(2):179-185, 1975). The inoculum was kept in an ice bath until used (preferably in less than one hour).
Male Swiss-Webster mice were challenged intraperitoneally with 0.5 mL of a bacterial suspension of S. aureus strain Smith (LD50). Test compounds were administered subcutaneously in 0.1 mL volumes immediately after inoculation and 2 hours later. […] The total dose associated with 50% survival (ED50) was determined using the probit method (Pasiello, A. P., J. M. Essigmann, and G. N. Wogan.: Rapid and accurate determination of median lethal dose (LD50) and its error with a small computer. J Toxicol. Environ. Health. 3:797-809, 1977).

[7] = Human serum binding by ultrafiltration; type: in vitro ADME
Protocol: Binding of several representative compounds of this invention in pooled human serum was determined using ultrafiltration. Compounds were incubated in serum for 10 minutes at 37° C. in a shaking water bath. Serum ultrafiltrate was accomplished by centrifugation (Amicon Centrifree) for 20 minutes at 25° C. Compound content in the ultrafiltrate was quantified by HPLC. An ultrafilrate obtained by following the same procedure with no added compound was used as a standard.

[8] = Staphylococcus aureus Smith (MSSA)
[9] = Staphylococcus aureus ATCC 29213 (MSSA)
[10] = Staphylococcus aureus COL (MRSA, non-β-lactamase producing)
[11] = Staphylococcus aureus 76 (MRSA, β-lactamase producing)
[12] = ATCC29212, Enterococcus faecalis ATCC 29212, read-out: MIC E. f. 29212
[13] = ATCC35667, Enterococcus faecium ATCC 35667, read-out: MIC E. f. 35667
[14] = 50% efficacious dose, S. aureus Smith, mice challenged intraperitoneally, compound subcutaneously at 0 and 2 h, total dose, 72 h survival
[15] = pooled human serum, ultrafiltration, 10 minutes at 37° C.
[16] = Enterococcus faecalis ATCC 29212
[17] = Enterococcus faecium ATCC 35667

Compound | MIC [1, 8] [µg/mL] | MIC [2, 9] [µg/mL] | MIC [3, 10] [µg/mL] | MIC [4, 11] [µg/mL] | MIC [5, 12] [µg/mL] | MIC [6, 13] [µg/mL] | ED50 (S. aureus strain Smith; [14]) [mg/kg] | also measured
Nc1nc(/C(=N/OC2CCCC2)C(=O)N[C@@H]2C(=O)N3C(C(=O)O)=C(Sc4ccnn4-c4ccccc4)CS[C@H]23)cs1 [Compound 13] | 0.5 (≈ 0.817 µM) | 0.5 (≈ 0.817 µM) | 2 (≈ 3.27 µM) | 4 (≈ 6.54 µM) | 2 (≈ 3.27 µM) | 4 (≈ 6.54 µM) | > 10 | –
CCC(CC)O/N=C(\C(=O)N[C@@H]1C(=O)N2C(C(=O)O)=C(Sc3ccnn3-c3ccccc3)CS[C@H]12)c1csc(N)n1 [Compound 17] | – | 0.5 (≈ 0.815 µM) | 2 (≈ 3.26 µM) | 4 (≈ 6.52 µM) | 2 (≈ 3.26 µM) | 4 (≈ 6.52 µM) | > 10 | –
Nc1nc(/C(=N/OCC2CC2)C(=O)N[C@@H]2C(=O)N3C(C(=O)O)=C(Sc4ccnn4-c4ccccc4)CS[C@H]23)cs1 [Compound 19] | 0.5 (≈ 0.837 µM) | 0.5 (≈ 0.837 µM) | 4 (≈ 6.69 µM) | 8 (≈ 13.4 µM) | 16 (≈ 26.8 µM) | 16 (≈ 26.8 µM) | > 10 | –
Nc1nc(/C(=N/O)C(=O)N[C@@H]2C(=O)N3C(C(=O)O)=C(Sc4ccncc4)CS[C@H]23)c(Cl)s1 [Compound 21] | 0.25 (≈ 0.487 µM) | 0.25 (≈ 0.487 µM) | 2 (≈ 3.9 µM) | 2 (≈ 3.9 µM) | 0.5 (≈ 0.975 µM) | 2 (≈ 3.9 µM) | 3.6 | HSB, human serum binding [7, 15]: 98%
Nc1nc(/C(=N/O)C(=O)N[C@@H]2C(=O)N3C(C(=O)O)=C(Sc4ccncc4CSc4ccncc4)CS[C@H]23)c(Cl)s1 [Compound 25] | – | – | – | – | – | – | – | MIC S. a. Smith [1, 8]: 0.25 µg/mL (≈ 0.393 µM); MIC S. a. 29213 [2, 9]: 0.25 µg/mL (≈ 0.393 µM); MIC S. a. COL [3, 10]: 1 µg/mL (≈ 1.57 µM); MIC S. a. 76 [4, 11]: 2 µg/mL (≈ 3.14 µM); MIC E. f. 29212 [5, 16]: 0.125 µg/mL (≈ 0.196 µM); MIC E. f. 35667 [6, 17]: 0.25 µg/mL (≈ 0.393 µM); ED50, mg/kg (95% C.I.) (S. aureus strain Smith; [14]): >5 mg/kg; HSB, human serum binding [7]: >99%
Nc1nnc(SCc2cnccc2SC2=C(C(=O)O)N3C(=O)[C@@H](NC(=O)/C(=N\O)c4nc(N)sc4Cl)[C@H]3SC2)s1 [Compound 26] | – | – | – | – | – | – | – | MIC S. a. Smith [1, 8]: 0.06 µg/mL (≈ 0.0912 µM); MIC S. a. 29213 [2, 9]: 0.25 µg/mL (≈ 0.38 µM); MIC S. a. COL [3, 10]: 1 µg/mL (≈ 1.52 µM); MIC S. a. 76 [4, 11]: 2 µg/mL (≈ 3.04 µM); MIC E. f. 29212 [5, 16]: 0.25 µg/mL (≈ 0.38 µM); MIC E. f. 35667 [6, 17]: 0.5 µg/mL (≈ 0.76 µM); ED50, mg/kg (95% C.I.) (S. aureus strain Smith; [14]): 0.38 (01-0.7) mg/kg; HSB, human serum binding [7, 15]: >99%
Nc1nc(/C(=N/O)C(=O)N[C@@H]2C(=O)N3C(C(=O)O)=C(Sc4ccncc4CO)CS[C@H]23)c(Cl)s1 [Compound 28] | 0.125 (≈ 0.23 µM) | 0.5 (≈ 0.921 µM) | 2 (≈ 3.68 µM) | 2 (≈ 3.68 µM) | 0.25 (≈ 0.46 µM) | 1 (≈ 1.84 µM) | – | HSB, human serum binding [7, 15]: >99%
Nc1nc(/C(=N/O)C(=O)N[C@@H]2C(=O)N3C(C(=O)O)=C(Sc4ccncc4CSc4cccnc4N)CS[C@H]23)c(Cl)s1 [Compound 29] | – | – | – | – | – | – | – | MIC S. a. Smith [1, 8]: 0.25 µg/mL (≈ 0.384 µM); MIC S. a. 29213 [2, 9]: 0.125 µg/mL (≈ 0.192 µM); MIC S. a. COL [3, 10]: 1 µg/mL (≈ 1.54 µM); MIC S. a. 76 [4, 11]: 2 µg/mL (≈ 3.07 µM); MIC E. f. 29212 [5, 16]: 0.125 µg/mL (≈ 0.192 µM); MIC E. f. 35667 [6, 17]: 0.5 µg/mL (≈ 0.768 µM); ED50, mg/kg (95% C.I.) (S. aureus strain Smith; [14]): >5 mg/kg
NC(=O)NCCSCc1cnccc1SC1=C(C(=O)O)N2C(=O)[C@@H](NC(=O)/C(=N\O)c3nc(N)sc3Cl)[C@H]2SC1 [Compound 30] | – | – | – | – | – | – | – | MIC S. a. Smith [1, 8]: 0.5 µg/mL (≈ 0.775 µM); MIC S. a. 29213 [2, 9]: 0.5 µg/mL (≈ 0.775 µM); MIC S. a. COL [3, 10]: 4 µg/mL (≈ 6.2 µM); MIC S. a. 76 [4, 11]: 4 µg/mL (≈ 6.2 µM); MIC E. f. 29212 [5, 16]: 0.125 µg/mL (≈ 0.194 µM); HSB, human serum binding [7]: 96%
Nc1nc(C(=NO)C(=O)N[C@@H]2C(=O)N3C(C(=O)O)=C(Sc4cnns4)CSC23)c(Cl)s1 (stereo partly drawn) [Compound 43, (7R)-7-[2-(2-Amino-5-chlorothiazol-4-yl)-2-hydroxyiminoacetylamino]-8-oxo-3-([1,2,3]thiadiazol-5-ylsulfanyl)-5-thia-1-aza-bicyclo[4.2.0]oct-2-ene-2-carboxylic acid] | 0.06 (≈ 0.115 µM) | < 0.06 | 0.5 (≈ 0.962 µM) | 1 (≈ 1.92 µM) | 0.125 (≈ 0.24 µM) | 0.5 (≈ 0.962 µM) | – | HSB, human serum binding [7, 15]: 96% (−)
Nc1nsc(SC2=C(C(=O)O)N3C(=O)[C@@H](NC(=O)C(=NO)c4nc(N)sc4Cl)C3SC2)n1 (stereo partly drawn) [Compound 47, (7R)-7-[2-(2-Amino-5-chlorothiazol-4-yl)-2-hydroxyiminoacetylamino]-3-(3-amino-[1,2,4]thiadiazol-5-ylsulfanyl)-8-oxo-5-thia-1-aza-bicyclo[4.2.0]oct-2-ene-2-carboxylic acid] | 0.25 (≈ 0.467 µM) | 0.125 (≈ 0.234 µM) | 0.5 (≈ 0.935 µM) | 1 (≈ 1.87 µM) | 0.125 (≈ 0.234 µM) | 0.5 (≈ 0.935 µM) | – | –
Nc1nc(CC(=O)N[C@@H]2C(=O)N3C(C(=O)O)=C(Sc4nnc(N)s4)CSC23)cs1 (stereo partly drawn) [Compound 51, 3-(5-Amino-[1,3,4]thiadiazol-2-ylsulfanyl)-(7R)-7-[2-(2-amino-thiazol-4-yl)-acetylamino]-8-oxo-5-thia-1-aza-bicyclo[4.2.0]oct-2-ene-2-carboxylic acid] | 0.06 (≈ 0.127 µM) | 0.125 (≈ 0.265 µM) | 4 (≈ 8.48 µM) | 16 (≈ 33.9 µM) | 2 (≈ 4.24 µM) | 4 (≈ 8.48 µM) | – | –
C[C@@H](O)[C@H]1C(=O)N2C(C(=O)O)=C(SCCN=CN)C[C@H]12 [Imipenem, reference compound] | 0.25 (≈ 0.835 µM) | < 0.02 | 16 (≈ 53.4 µM) | 32 (≈ 107 µM) | 1 (≈ 3.34 µM) | 4 (≈ 13.4 µM) | 0.15 | –
CN[C@H](CC(C)C)C(=O)N[C@H]1C(=O)N[C@@H](CC(N)=O)C(=O)N[C@H]2C(=O)N[C@H]3C(=O)N[C@H](C(=O)N[C@H](C(=O)O)c4cc(O)cc(O)c4-c4cc3ccc4O)[C@H](O)c3ccc(c(Cl)c3)Oc3cc2cc(c3O[C@@H]2O[C@H](CO)[C@@H](O)[C@H](O)[C@H]2O[C@H]2C[C@](C)(N)[C@H](O)[C@H](C)O2)Oc2ccc(cc2Cl)[C@H]1O [Vancomycin, reference compound] | – | – | – | – | – | – | – | MIC ([1]; Staphylococcus aureus, MSSA): 0.5 µg/mL (≈ 0.345 µM); MIC ([2]; Staphylococcus aureus): 0.5 µg/mL (≈ 0.345 µM); MIC ([3]; Staphylococcus aureus, MRSA): 1 µg/mL (≈ 0.69 µM); MIC ([4]; Staphylococcus aureus, MRSA): 0.5 µg/mL (≈ 0.345 µM); MIC ([5]; Enterococcus faecalis, ATCC29212, read-out: MIC E. f. 29212): 1 µg/mL (≈ 0.69 µM); MIC ([6]; Enterococcus faecium, ATCC35667, read-out: MIC E. f. 35667): 0.25 µg/mL (≈ 0.173 µM); ED50 (S. aureus strain Smith): 2.1 mg/kg
